Read-outs that look alike come from different tables or passages of the source.
Key:
Type in all cases: physicochemical
[1] = Solubility assessment (solvent added in 10 volume aliquots); conditions: thermodynamic from solid, read-out: Solubility assessment observation
Method: For each solvent investigated, approximately 8 mg of compound 1 was weighed into an 8 ml screw top glass vial. The solvent was added in 10 volume aliquots and the mixture sonicated and warmed (with a hot-air gun) to encourage dissolution. If dissolution was not achieved after the addition of 100 volumes of solvent, a further 100 volumes was added.

[2] = Thermogravimetric Analysis (TGA)
Method: Thermogravimetric Analysis (TGA) data were collected on a Mettler TGA/SDTA 851e equipped with a 34 position autosampler. The instrument was temperature calibrated using certified indium. Typically 5-30 mg of each sample was loaded onto a pre-weighed aluminium crucible and was heated at 10° C.min^−1 from ambient temperature to 350° C. A nitrogen purge at 50 ml.min^−1 was maintained over the sample. The instrument control and data analysis software was STARe v9.10.

[3] = Phase stability by XRPD after storage at 40° C. and 75% relative humidity for one week; conditions: solid form by low resolution XRPD after one week
Method: Condition 2 (Low Resolution)
X-Ray Powder Diffraction patterns were also collected on a Bruker D8 diffractometer using Cu K[…] radiation (40 kV, 40 mA), θ-2θ goniometer, and divergence of V4 and receiving slits, a Ge monochromator and a Lynxeye detector. The instrument is performance checked using a certified Corundum standard (NIST 1976). The software used for data collection was Diffrac Plus XRD Commander v2.5.0 and the data were analysed and presented using Diffrac Plus EVA v 11.0.0.2 or v 13.0.0.2. Samples were run under ambient conditions as flat plate specimens using powder as received. Approximately 15 mg of the sample was gently packed into a cavity cut into polished, zerobackground (510) silicon wafer. The sample was rotated in its own plane during analysis. The details of the data collection are:
The samples which had been prepared for the collection of low resolution XRPD traces were placed in a chamber maintained at 40° C. and 75% relative humidity. After one week the samples were reanalysed by low resolution XRPD (Condition 2), to check for phase changes. It can be seen that no phase change has occurred, and that citrate salts of the invention are stable for at least one week under these conditions.

[4] = Differential Scanning Calorimetry (DSC); conditions: heated at 10° C.min^−1
Method: Differential Scanning Calorimetry (DSC) data were collected on a Mettler DSC 823e equipped with a 34 position auto-sampler. The instrument was calibrated for energy and temperature using certified indium. Typically 0.5-3 mg of each sample, in a pin-holed aluminium pan, was heated at 10° C.min^−1 from 25° C. to 350° C. A nitrogen purge at 50 ml.min^−1 was maintained over the sample. The instrument control and data analysis software was STARe v9.10.

## C1=C2COC/C=C/COCc3cc(ccc3OCCN3CCCC3)Nc3nccc(n3)C(=C1)O2 [Batch 5]
[1]; IPA, organic solvent or mixture, IPA, 10 vols
  solubility: < 100 mg/mL
[1]; IPA, organic solvent or mixture, IPA, 20 vols
  solubility: < 50 mg/mL
[1]; IPA, organic solvent or mixture, IPA, 30 vols
  solubility: < 33.3 mg/mL
[1]; IPA, organic solvent or mixture, IPA, 40 vols
  solubility: < 25 mg/mL
[1]; IPA, organic solvent or mixture, IPA, 60 vols
  solubility: < 16.7 mg/mL
[1]; IPA, organic solvent or mixture, IPA, 80 vols
  solubility: < 12.5 mg/mL
[1]; IPA, organic solvent or mixture, IPA, 100 vols
  solubility: < 10 mg/mL
[1]; IPA, organic solvent or mixture, IPA, 200 vols
  solubility: < 5 mg/mL
[1]; MEK, organic solvent or mixture, MEK, 10 vols
  solubility: < 100 mg/mL
[1]; MEK, organic solvent or mixture, MEK, 20 vols
  solubility: < 50 mg/mL
[1]; MEK, organic solvent or mixture, MEK, 30 vols
  solubility: < 33.3 mg/mL
[1]; MEK, organic solvent or mixture, MEK, 40 vols
  solubility: < 25 mg/mL
[1]; MEK, organic solvent or mixture, MEK, 50 vols
  solubility: < 20 mg/mL
[1]; MEK, organic solvent or mixture, MEK, 60 vols
  solubility: < 16.7 mg/mL
[1]; MEK, organic solvent or mixture, MEK, 80 vols
  solubility: < 12.5 mg/mL
[1]; MEK, organic solvent or mixture, MEK, 100 vols
  solubility: < 10 mg/mL
[1]; MEK, organic solvent or mixture, MEK, 200 vols
  solubility: < 5 mg/mL
[1]; THF, organic solvent or mixture, THF, 10 vols
  solubility: < 100 mg/mL
[1]; THF, organic solvent or mixture, THF, 20 vols
  solubility: < 50 mg/mL
[1]; THF, organic solvent or mixture, THF, 30 vols
  solubility: < 33.3 mg/mL
[1]; THF, organic solvent or mixture, THF, 40 vols
  solubility: < 25 mg/mL
[1]; THF, organic solvent or mixture, THF, 60 vols
  solubility: < 16.7 mg/mL
[1]; THF, organic solvent or mixture, THF, 80 vols
  solubility: < 12.5 mg/mL
[1]; THF, organic solvent or mixture, THF, 100 vols
  solubility: < 10 mg/mL
[1]; THF, organic solvent or mixture, THF, 200 vols
  solubility: < 5 mg/mL
[1]; acetone, organic solvent or mixture, Acetone, 10 vols
  solubility: < 100 mg/mL
[1]; acetone, organic solvent or mixture, Acetone, 20 vols
  solubility: < 50 mg/mL
[1]; acetone, organic solvent or mixture, Acetone, 40 vols
  solubility: < 25 mg/mL
[1]; acetone, organic solvent or mixture, Acetone, 60 vols
  solubility: < 16.7 mg/mL
[1]; acetone, organic solvent or mixture, Acetone, 80 vols
  solubility: < 12.5 mg/mL
[1]; acetone, organic solvent or mixture, Acetone, 100 vols
  solubility: < 10 mg/mL
[1]; acetone, organic solvent or mixture, Acetone, 200 vols
  solubility: < 5 mg/mL
[1]; acetonitrile, organic solvent or mixture, Acetonitrile, 10 vols
  solubility: < 100 mg/mL
[1]; acetonitrile, organic solvent or mixture, Acetonitrile, 20 vols
  solubility: < 50 mg/mL
[1]; acetonitrile, organic solvent or mixture, Acetonitrile, 30 vols
  solubility: < 33.3 mg/mL
[1]; acetonitrile, organic solvent or mixture, Acetonitrile, 40 vols
  solubility: < 25 mg/mL
[1]; acetonitrile, organic solvent or mixture, Acetonitrile, 60 vols
  solubility: < 16.7 mg/mL
[1]; acetonitrile, organic solvent or mixture, Acetonitrile, 80 vols
  solubility: < 12.5 mg/mL
[1]; acetonitrile, organic solvent or mixture, Acetonitrile, 100 vols
  solubility: < 10 mg/mL
[1]; acetonitrile, organic solvent or mixture, Acetonitrile, 200 vols
  solubility: < 5 mg/mL
[1]; ethanol, organic solvent or mixture, Ethanol, 10 vols
  solubility: < 100 mg/mL
[1]; ethanol, organic solvent or mixture, Ethanol, 20 vols
  solubility: < 50 mg/mL
[1]; ethanol, organic solvent or mixture, Ethanol, 30 vols
  solubility: < 33.3 mg/mL
[1]; ethanol, organic solvent or mixture, Ethanol, 40 vols
  solubility: < 25 mg/mL
[1]; ethanol, organic solvent or mixture, Ethanol, 60 vols
  solubility: < 16.7 mg/mL
[1]; ethanol, organic solvent or mixture, Ethanol, 80 vols
  solubility: < 12.5 mg/mL
[1]; ethanol, organic solvent or mixture, Ethanol, 100 vols
  solubility: < 10 mg/mL
[1]; ethanol, organic solvent or mixture, Ethanol, 200 vols
  solubility: < 5 mg/mL
[1]; water, Water, 10 vols
  solubility: > 100 mg/mL
[2]; 160 to 250° C.
  Thermogravimetric Analysis weight change: −21% w/w 160 to 250 °C
[2]; ambient to 160° C.
  Thermogravimetric Analysis weight change: −0.4% w/w ambient to
[3]
  Phase Stability 1 wk @ 40° C./75% RH: Crystalline Form 1
[4]
  Differential Scanning Calorimetry complex endotherm onset (significant thermal event): onset 178 °C

Reference: patent publication US9062074B2, “(9E)-15-(2-pyrrolidin-1-yl-ethoxy)-7,12,25-trioxa-19,21,24-triaza-tetracyclo[18.3.1.1(2.5).1(14,18)]hexacosa-1(24),2,4,9,14,16,18(26),20,22-nonaene citrate salt” (CTI BioPharma Corp., priority 2009, dated 2015)
